Reference: US20230148450A9, “BICYCLIC HETEROARYL COMPOUNDS AND USES THEREOF” (Revolution Medicines, Inc., priority 2019, published 2023)

Columns and labels:
[1] = target: T1, SOS1 nucleotide exchange of KRAS (catalytic domain of SOS1, residues 564-1049; wild-type KRAS) (Homo sapiens, UniProt Q07889); assay: Mode of Action Assay: Inhibition of SOS1 Nucleotide Exchange Activity (TR-FRET); type: biochemical; conditions: TR-FRET signal
T1 construct: tagless catalytic domain of SOS1 (residues 564-1049)
T1 sequence (Q07889 564-1049): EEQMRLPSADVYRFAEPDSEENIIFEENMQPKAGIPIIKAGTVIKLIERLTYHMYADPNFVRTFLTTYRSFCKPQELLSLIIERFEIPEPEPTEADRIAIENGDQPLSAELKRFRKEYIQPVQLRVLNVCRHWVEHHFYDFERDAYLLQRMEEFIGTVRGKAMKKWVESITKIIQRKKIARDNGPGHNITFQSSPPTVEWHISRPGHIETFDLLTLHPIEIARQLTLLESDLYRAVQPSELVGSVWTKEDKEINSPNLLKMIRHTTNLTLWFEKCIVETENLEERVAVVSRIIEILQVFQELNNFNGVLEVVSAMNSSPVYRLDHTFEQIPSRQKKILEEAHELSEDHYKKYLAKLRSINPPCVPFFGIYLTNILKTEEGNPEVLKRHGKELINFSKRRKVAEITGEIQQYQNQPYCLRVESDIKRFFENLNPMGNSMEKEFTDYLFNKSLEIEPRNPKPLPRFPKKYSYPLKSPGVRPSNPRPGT
Procedure: The purpose of this assay was to characterize the inhibitory activity of compounds on SOS1 nucleotide exchange of KRAS. Data was reported as IC50 values based on the TR-FRET signal.
Note—the following protocol describes a procedure for monitoring the inhibition of SOS1 nucleotide exchange activity of wild-type KRAS in response to a compound of the invention. Other KRAS mutants and RAS isoforms maybe employed.
In assay buffer containing 20 mM HEPES, pH 7.5, 150 mM NaCl, 5 mM MgCl2, 0.05% Tween-20, 0.1% BSA, 1 mM DTT, concentration series of test compounds were generated spanning 100 μM to 1.7 nM over eleven 3-fold serial dilutions in a 384-well assay plate at a volume of 20 μL. The purified tagless catalytic domain of SOS1 (residues 564-1049) was first diluted in assay buffer at a concentration of 100 nM, and then 20 μL of the SOS1 containing solution was directly dispensed into compound plates. The SOS1/compound mixture was incubated at room temperature with constant mixing on an orbital shaker for 20 minutes to allow the reaction to reach equilibrium. A KRAS mixture was prepared by diluting 66.7 nM avi-tagged KRAS (residue 1-169), 3.33 nM Streptavidin-Tb and 333 nM EDA-GTP-DY-647P1 in assay buffer. This mixture was prepared immediately before addition to the SOS1/compound mixture to prevent intrinsic nucleotide exchange. Then 5 μL of the pre-incubated SOS1/compound mixture and 7.5 μL of the KRAS mixture were added sequentially in a 384-well low volume black round bottom plate and incubated at room temperature with constant shaking for 30 minutes. Time-resolved fluorescence was measured on a PerkinElmer Envision plate reader. DMSO and 10 μM of compound (i) were used as negative and positive controls, respectively.
Three replicates were performed for each compound. Data were normalized by the following: (Positive control—Sample signal)/(Positive control—negative control)*100. The data were fit using a four-parameter logistic fit.

[2] = target: T2, SOS1 catalytic domain (residues 564-1049) (Homo sapiens, UniProt Q07889); assay: Binding affinity to SOS1 using Surface Plasmon Resonance (SPR); conditions: avi-tagged SOS1 catalytic domain immobilized on sensor chip; read-out: SOS1 SPR Equilibrium Kd
T2 construct: SOS1 catalytic domain (residues 564-1049) immobilized on a sensor chip
T2 sequence (Q07889 564-1049): T1 sequence (Q07889 564-1049)
From the text: Potency Assay: Measurement of the Binding Affinity of Compounds of the Invention to SOS! using Surface Plasmon Resonance (SPR)
The purpose of the SPR assay was to measure the direct binding of compounds to SOS1 catalytic domain (residues 564-1049) immobilized on a sensor chip. Data was reported as equilibrium dissociation constant (Kd) values.
Using a GE Biacore 8K SPR instrument, avi-tagged SOS1 catalytic domain protein was immobilized to a level of approximately 6000 response units (RU) on a streptavidin-coated SPR sensor chip in assay buffer containing 0.01 M HEPES, 0.15 M NaCl and 0.05% v/v Surfactant P20. In assay buffer containing 2% DMSO, concentration series of test compounds were generated spanning 5 μM to 4.9 nM over ten 2-fold dilutions. For each test compound, a separate 0 μM sample was generated for use during subsequent double reference subtraction. Serially for each test compound, individual dilution samples were flowed over the immobilized SOS1 protein at a flow rate of 50 μL/minute to monitor the association with SOS1. Dissociation of bound test compound from the SOS1 protein was immediately monitored by flowing assay buffer over the sensor surface and monitoring the decrease in binding signal back to the baseline level seen in the absence of compound. This was repeated for all compound dilutions in each series. The binding level response for each test compound concentration was noted immediately prior to the end of the association phase, and a secondary plot generated showing binding response level versus test compound concentration generated for each compound dilution series.

[3] = tested on: cellular pERK in PC-9 cells (EGFR Ex19Del); assay: Potency Assay: pERK; type: cell-based; conditions: Homo sapiens; PC-9 cells (EGFR Ex19Del), 1 hour incubation, AlphaLISA p-ERK1/2; read-out: SOS1 pERK IC50
From the text: The purpose of this assay is to measure the ability of test compounds to inhibit SOS1 function in cells. SOS1 activates RAS proteins by catalyzing the conversion of […] to […] in response to receptor tyrosine kinase activation. Activation of RAS induces a sequence of cellular signaling events that results in increased phosphorylation of ERK at […] (pERK). The procedure described below measures the level of cellular pERK in response to test compounds in PC-9 cells (EGFR Ex[…]). PC-9 cells were grown and maintained using media and procedures recommended by the ATCC. On the day prior to compound addition, cells were plated in 384-well cell culture plates (40 μL/well) and grown overnight in a 37° C., 5% CO2 incubator. Test compounds were prepared in 10, 3-fold dilutions in DMSO, with a top concentration of 10 mM. On the day of the assay, 40 nL of test compound was added to each well of cell culture plate using an Echo550 liquid handler (LabCyte). Concentrations of test compound were tested in duplicate with highest test concentration being 10 μM. After compound addition, cells were incubated for 1 hour at 37° C., 5% CO2. Following incubation, culture medium was removed and cells were washed once with phosphate buffered saline. Cellular pERK level was determined using the AlphaLISA SureFire Ultra p-ERK1/2 Assay Kit (PerkinElmer). Cells were lysed in 25 μL lysis buffer, with shaking at 600 RPM at room temperature for 15 minutes. Lysate (10 μL) was transferred to a 384-well Opti-plate (PerkinElmer) and 5 μL acceptor mix was added. The plate was centrifuged at 1000 RPM for 1 minute, and incubated in the dark for 2 hours. Following this incubation, 5 μL of donor mix was added, the plate was sealed and centrifuged at 1000 RPM for 1 minute, and the mixture was incubated for 2 hours at room temperature. Signal was read on an Envision plate reader (PerkinElmer) using standard AlphaLISA settings. Analysis of raw data was carried out in Excel (Microsoft) and Prism (GraphPad). Signal was plotted vs. the decadal logarithm of compound concentration, and IC50 was determined by fitting a 4-parameter sigmoidal concentration response model.

Row | SMILES | IC50 [1] | Kd [2] | IC50 [3]
1 | Cc1nc(N[C@H](C)c2cc(N)cc(C(F)(F)F)c2)c2cc(-c3ccnc(N4CCOCC4)c3)cn2n1 [Example 63, N-[(1R)-1-[3-amino-5-(trifluoromethyl)phenyl]ethyl]-2-methyl-6-[2-(morpholin-4-yl)pyridin-4-yl]pyrrolo[2,1-f][1,2,4]triazin-4-amine] | > 1000 nM | ≤ 400 nM | –
2 | COc1cc2c(N[C@H](C)c3cc(N)cc(C(F)(F)F)c3)ncnn2c1 [Example 44, N-[(1R)-1-[3-amino-5-(trifluoromethyl)phenyl]ethyl]-6-methoxy-pyrrolo[2,1-f][1,2,4]triazin-4-amine] | > 1000 nM | > 400 nM | –
3 | Cc1nc(N[C@H](C)c2cc(N)cc(C(F)(F)F)c2)c2cc(CN3CCOCC3)cn2n1 [Example 34, N-[(1R)-1-[3-amino-5-(trifluoromethyl)phenyl]ethyl]-2-methyl-6-(morpholinomethyl)pyrrolo[2,1-f][1,2,4]triazin-4-amine] | > 1000 nM | > 400 nM | –
4 | C[C@@H](Nc1nc(Cl)nn2cc(C(=O)N3CCOCC3)cc12)c1cc(N)cc(C(F)(F)F)c1 [Example 68] | – | – | < 1000 nM
5 | C[C@@H](Nc1ccnc2cc(C3=CCNCC3)nn12)c1cc(N)cc(C(F)(F)F)c1 [Example 52, N-[(1R)-1-[3-amino-5-(trifluoromethyl)phenyl]ethyl]-2-(1,2,3,6-tetrahydropyridin-4-yl)pyrazolo[1,5-a]pyrimidin-7-amine] | > 1000 nM | ≤ 400 nM | –
6 | C[C@@H](Nc1nccc2nc(C(=O)N3CC4(CN(CC(F)F)C4)C3)cn12)c1cccc(C(F)F)c1F [Example 93] | < 1000 nM | ≤ 400 nM | –
7 | Cc1cn2nc(C(=O)N3CCNCC(F)(F)C3)cc2c(N[C@H](C)c2cc(N)cc(C(F)(F)F)c2)n1 [Example 77] | > 1000 nM | – | –
8 | Cc1cn2nc(C(=O)N3CCOCC3)cc2c(N[C@H](C)c2cc(N)cc(C(F)(F)F)c2)n1 [Example 58., 60.] | > 1000 nM | > 400 nM | –
9 | C[C@@H](Nc1cc(C(F)(F)F)cn2nc(C3=CCNCC3)nc12)c1cc(N)cc(C(F)(F)F)c1 [Example 54, N-[(1R)-1-[3-amino-5-(trifluoromethyl)phenyl]ethyl]-2-(1,2,3,6-tetrahydropyridin-4-yl)-6-(trifluoromethyl)-[1,2,4]triazolo[1,5-a]pyridin-8-amine] | > 1000 nM | – | –
10 | Cc1cn2nc(C(=O)N3CC(N4CCC4)C3)cc2c(N[C@H](C)c2cc(N)cc(C(F)(F)F)c2)n1 [Example 79] | > 1000 nM | – | –
11 | Cc1nc(N[C@H](C)c2cc(N)cc(C(F)(F)F)c2)c2cc(C3=CCNCC3)sc2n1 [Example 46, N-[(1R)-1-[3-amino-5-(trifluoromethyl)phenyl]ethyl]-2-methyl-6-(1,2,3,6-tetrahydropyridin-4-yl)thieno[2,3-d]pyrimidin-4-amine] | > 1000 nM | – | –
12 | Cc1cn2nc(C(=O)N3CC4CC(C3)N4C)cc2c(N[C@H](C)c2cc(N)cc(C(F)(F)F)c2)n1 [Example 80] | > 1000 nM | – | –
13 | CC(=O)N1CCN(c2cc3c(N[C@H](C)c4cccc(C(F)(F)F)c4)ncnn3c2)CC1 [Example 45, 1-[4-[4-[[(1R)-1-[3-(trifluoromethyl)phenyl]ethyl]amino]pyrrolo[2,1-f][1,2,4]triazin-6-yl]piperazin-1-yl]ethenone] | > 1000 nM | ≤ 400 nM | –
14 | C[C@@H](Nc1cccc2nc(C3=CCNCC3)nn12)c1cc(N)cc(C(F)(F)F)c1 [Example 55, N-[(1R)-1-[3-amino-5-(trifluoromethyl)phenyl]ethyl]-2-(1,2,3,6-tetrahydropyridin-4-yl)-[1,2,4]triazolo[1,5-a]pyridin-5-amine] | > 1000 nM | – | –
15 | C[C@@H](Nc1nccc2nc(C(=O)N3CC4(CN(CCF)C4)C3)cn12)c1cccc(C(F)F)c1F [Example 92] | < 1000 nM | ≤ 400 nM | –
16 | C[C@@H](Nc1ncnc2c1cc(C1=CCNCC1)n2C)c1cc(N)cc(C(F)(F)F)c1 [Example 67] | – | ≤ 400 nM | –
17 | COc1ncccc1-c1cc2c(N[C@H](C)c3cc(N)cc(C(F)(F)F)c3)nc(C)nn2c1 [Example 64, N-[(1R)-1-[3-amino-5-(trifluoromethyl)phenyl]ethyl]-6-(2-methoxypyridin-3-yl)-2-methylpyrrolo[2,1-f][1,2,4]triazin-4-amine] | > 1000 nM | > 400 nM | –
18 | C[C@@H](Nc1nc(Cl)cc2nc(C(=O)N3CCOCC3)cn12)c1cccc(C(F)(F)CO)c1 [Example 86] | < 1000 nM | ≤ 400 nM | –
19 | C[C@@H](Nc1ncnc2cn(CC3CCOC3)cc12)c1cc(N)cc(C(F)(F)F)c1 (stereo partly drawn) [Example 32, N-[(1R)-1-[3-amino-5-(trifluoromethyl)phenyl]ethyl]-6-(tetrahydrofuran-3-ylmethyl)pyrrolo[3,4-d]pyrimidin-4-amine] | – | ≤ 400 nM | –
20 | Cc1cn2nc(C(=O)N3CCN(C)CC3)cc2c(N[C@H](C)c2cc(N)cc(C(F)(F)F)c2)n1 [Example 59] | > 1000 nM | ≤ 400 nM | –
21 | CC(=O)N1CCN(c2cc3c(N[C@H](C)c4cc(N)cc(C(F)(F)F)c4)ncnn3c2)CC1 [Example 43, 1-[4-[4-[[(1R)-1-[3-amino-5-(trifluoromethyl)phenyl]ethyl]amino]pyrrolo[2,1-f][1,2,4]triazin-6-yl]piperazin-1-yl]ethanone] | > 1000 nM | > 400 nM | –
